{"source": "patent US10640457B2", "about": "“Histone acetyltransferase activators and uses thereof” (The Trustees of Columbia University in the City of New York, priority 2009, dated 2020)", "key": {"[1]": {"target": "HDAC1 (Homo sapiens, UniProt Q13547)", "sequence (Q13547 whole entry)": "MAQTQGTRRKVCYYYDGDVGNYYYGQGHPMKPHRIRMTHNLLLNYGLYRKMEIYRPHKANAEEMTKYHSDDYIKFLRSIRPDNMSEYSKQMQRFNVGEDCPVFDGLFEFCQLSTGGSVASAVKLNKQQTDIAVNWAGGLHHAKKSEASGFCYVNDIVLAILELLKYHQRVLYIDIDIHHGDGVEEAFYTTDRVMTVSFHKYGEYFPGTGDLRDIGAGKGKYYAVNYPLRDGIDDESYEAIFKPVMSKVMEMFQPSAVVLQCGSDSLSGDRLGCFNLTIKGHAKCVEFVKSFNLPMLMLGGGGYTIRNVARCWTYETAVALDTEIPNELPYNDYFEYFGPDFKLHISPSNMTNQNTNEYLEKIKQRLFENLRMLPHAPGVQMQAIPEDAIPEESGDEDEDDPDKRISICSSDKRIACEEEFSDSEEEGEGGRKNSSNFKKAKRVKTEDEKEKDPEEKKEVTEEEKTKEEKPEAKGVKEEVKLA", "experiment": "HDAC1 fluorogenic activity assay", "conditions": "for % Activity: Repeat1/Repeat2, listed as OA2"}, "[2]": {"tested_on": "APP/PS1 mice", "experiment": "RAWM and fear conditioning in APP/PS1 mice (YF2)", "type": "in vivo", "description": "Without being bound by theory, given that these experiments were obtained with a synthetic preparation of Aβ42, it is difficult to know if this is the same as Aβ that causes synaptic dysfunction in AD brains. Thus, we validated these experiments in an Aβ-depositing mouse model, the APP/PS1 mouse^[P35] (herein incorporated by reference in its entirety). These mice have been well characterized with respect to AD pathology^[P34-38] (each herein incorporated by reference in its entirety). They start to show synaptic and memory impairment as early as 3 months of age^[P34] (herein incorporated by reference in its entirety). Transgenic mice with a double mutation APP […]/PS1(M146L) (line 6.2) start to develop large plaques in cortex and hippocampus at the age of 8-10 weeks. They have a reduction in LTP by 3 months of age together with impairment of contextual fear memory and spatial working memory."}, "[3]": {"tested_on": "YAC128 mice", "experiment": "Open field in YAC128 Huntington's Disease mice", "type": "in vivo", "conditions": "for effect of treatment on total locomotion (distance traveled, 30 min): age 6 mo., YF2 5 mg/kg", "description": "Animals: Mouse models of Huntington's Disease (YAC128) versus wildtype (WT) littermates.\nOpen field: This assay is a common assay used to monitor total spontaneous locomotor activity and exploratory behavior in mouse models of Huntington's disease (HD). The spontaneous locomotor activity of the animals was measured using an automated photo-beam open-field system (Med-Associates, St Albans, Vt.). Mice were placed individually in the center of a clear open-field chamber (27.9 cm×27.9 cm×20 cm), and their horizontal and vertical activities were measured immediately for 30 min with three 16-beam UR arrays. Locomotor activity was assessed as the distance traveled in 5-min intervals. The number of mice typically used for open field range from 12 to 15 mice."}, "[4]": {"target": "T1, Sirtuin 2 (Homo sapiens, UniProt Q8IXJ6)", "T1 sequence (Q8IXJ6 1-389)": "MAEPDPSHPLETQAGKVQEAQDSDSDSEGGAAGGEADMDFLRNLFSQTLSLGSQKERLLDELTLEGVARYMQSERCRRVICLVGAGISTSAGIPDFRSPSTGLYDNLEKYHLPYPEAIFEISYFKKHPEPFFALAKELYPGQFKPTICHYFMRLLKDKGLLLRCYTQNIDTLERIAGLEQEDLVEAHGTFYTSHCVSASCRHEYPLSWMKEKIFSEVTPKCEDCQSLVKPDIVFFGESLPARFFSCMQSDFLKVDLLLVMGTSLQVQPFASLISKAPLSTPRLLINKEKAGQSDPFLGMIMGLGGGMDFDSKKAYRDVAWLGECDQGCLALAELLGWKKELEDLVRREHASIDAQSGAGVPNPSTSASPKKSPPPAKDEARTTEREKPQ", "experiment": "Sirtuin 2 fluorogenic activity assay", "conditions": "for % Activity: Repeat1/Repeat2, listed as OA2"}, "[5]": {"target": "T2, Sirtuin 1 (Homo sapiens, UniProt Q96EB6)", "T2 sequence (Q96EB6 1-747)": "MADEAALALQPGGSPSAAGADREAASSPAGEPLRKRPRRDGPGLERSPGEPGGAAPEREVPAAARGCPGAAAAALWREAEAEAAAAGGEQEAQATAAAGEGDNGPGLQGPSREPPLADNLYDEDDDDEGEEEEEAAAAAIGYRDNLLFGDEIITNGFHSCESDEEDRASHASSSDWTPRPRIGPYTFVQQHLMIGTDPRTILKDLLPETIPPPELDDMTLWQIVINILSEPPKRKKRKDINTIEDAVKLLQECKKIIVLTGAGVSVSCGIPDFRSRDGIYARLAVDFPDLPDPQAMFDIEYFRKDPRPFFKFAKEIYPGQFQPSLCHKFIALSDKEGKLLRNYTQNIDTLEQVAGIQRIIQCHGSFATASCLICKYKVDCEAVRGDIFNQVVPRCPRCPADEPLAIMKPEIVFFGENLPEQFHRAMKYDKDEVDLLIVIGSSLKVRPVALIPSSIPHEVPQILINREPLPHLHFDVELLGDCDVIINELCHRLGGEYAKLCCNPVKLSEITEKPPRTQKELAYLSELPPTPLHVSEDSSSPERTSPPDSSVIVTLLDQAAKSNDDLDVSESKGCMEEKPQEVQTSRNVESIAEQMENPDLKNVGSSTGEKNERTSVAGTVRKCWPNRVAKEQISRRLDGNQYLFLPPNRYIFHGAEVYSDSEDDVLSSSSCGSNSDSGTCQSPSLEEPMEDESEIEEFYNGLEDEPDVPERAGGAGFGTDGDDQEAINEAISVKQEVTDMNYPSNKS", "experiment": "Sirtuin 1 fluorogenic activity assay", "conditions": "for % Activity: Repeat1/Repeat2, listed as OA2"}}, "note": "Several values for one entry are separate records, joined by “and”; a condition that tells them apart may be missing. Equal values may be shown once. Entries after “also recorded” stand apart in the source; their conditions may differ.", "data": [{"compound": "CCOc1cccc(OCCN(C)C)c1C(=O)Nc1ccc(Cl)c(C(F)(F)F)c1", "note": "[YF2]", "values": [{"measurement": "IC50", "setting": "[1]", "value": "> 200", "unit": "µM"}, {"measurement": "% Activity", "setting": "[1]; OA2 Log[nM] 0.5", "value": "98.80% and 98.28%"}, {"measurement": "% Activity", "setting": "[1]; OA2 Log[nM] 1.0", "value": "97.64% and 98.21%"}, {"measurement": "% Activity", "setting": "[1]; OA2 Log[nM] 1.5", "value": "96.72% and 97.14%"}, {"measurement": "% Activity", "setting": "[1]; OA2 Log[nM] 2.0", "value": "96.42% and 96.10%"}, {"measurement": "% Activity", "setting": "[1]; OA2 Log[nM] 2.5", "value": "95.81% and 97.49%"}, {"measurement": "% Activity", "setting": "[1]; OA2 Log[nM] 3.0", "value": "96.63% and 95.68%"}, {"measurement": "% Activity", "setting": "[1]; OA2 Log[nM] 3.5", "value": "93.12% and 97.60%"}, {"measurement": "% Activity", "setting": "[1]; OA2 Log[nM] 4.0", "value": "91.35% and 92.53%"}, {"measurement": "% Activity", "setting": "[1]; OA2 Log[nM] 4.5", "value": "92.01% and 90.19%"}, {"measurement": "% Activity", "setting": "[1]; OA2 Log[nM] 5.3", "value": "63.73% and 61.76%"}, {"measurement": "reference memory defect (RAWM)", "setting": "[2]; APP/PS1 mice, 20 mg/Kg i.p. 30 min before 1st and 2nd group of tests, 20 mg/kg", "value": "ameliorates; also recorded: rescued"}, {"measurement": "contextual fear memory deficit", "setting": "[2]; APP/PS1 mice, 20 mg/Kg i.p. 30 min before training for FC, 20 mg/kg", "value": "ameliorates"}, {"measurement": "memory in WT mice", "setting": "[2]; WT littermates, 20 mg/Kg i.p.", "value": "without affecting"}, {"measurement": "effect of treatment on total rearing or vertical movements", "setting": "[3]; female YAC128 mice", "value": "no significant effect"}, {"measurement": "effect of treatment on total locomotion (distance traveled, 30 min)", "setting": "[3]; female mice", "value": "diminish significantly (i.e. worsen)"}, {"measurement": "effect of treatment on total rearing or vertical movements", "setting": "[3]; male YAC128 mice", "value": "no significant effect"}, {"measurement": "effect of treatment on total locomotion (distance traveled, 30 min)", "setting": "[3]; male mice", "value": "no significant effect"}, {"measurement": "IC50", "setting": "[4]", "value": "> 200", "unit": "µM"}, {"measurement": "% Activity", "setting": "[4]; OA2 Log[nM] 0.5", "value": "97.71% and 101.89%"}, {"measurement": "% Activity", "setting": "[4]; OA2 Log[nM] 1.0", "value": "96.21% and 97.38%"}, {"measurement": "% Activity", "setting": "[4]; OA2 Log[nM] 1.5", "value": "98.59% and 101.33%"}, {"measurement": "% Activity", "setting": "[4]; OA2 Log[nM] 2.0", "value": "94.20% and 99.91%"}, {"measurement": "% Activity", "setting": "[4]; OA2 Log[nM] 2.5", "value": "94.74% and 96.43%"}, {"measurement": "% Activity", "setting": "[4]; OA2 Log[nM] 3.0", "value": "94.53% and 98.73%"}, {"measurement": "% Activity", "setting": "[4]; OA2 Log[nM] 3.5", "value": "96.80% and 98.23%"}, {"measurement": "% Activity", "setting": "[4]; OA2 Log[nM] 4.0", "value": "97.71% and 98.83%"}, {"measurement": "% Activity", "setting": "[4]; OA2 Log[nM] 4.5", "value": "92.45% and 95.14%"}, {"measurement": "% Activity", "setting": "[4]; OA2 Log[nM] 5.3", "value": "98.64% and 99.53%"}, {"measurement": "IC50", "setting": "[5]", "value": "> 200", "unit": "µM"}, {"measurement": "% Activity", "setting": "[5]; OA2 Log[nM] 0.5", "value": "94.26% and 99.92%"}, {"measurement": "% Activity", "setting": "[5]; OA2 Log[nM] 1.0", "value": "87.25% and 99.42%"}, {"measurement": "% Activity", "setting": "[5]; OA2 Log[nM] 1.5", "value": "100.27% and 87.48%"}, {"measurement": "% Activity", "setting": "[5]; OA2 Log[nM] 2.0", "value": "97.98% and 92.56%"}, {"measurement": "% Activity", "setting": "[5]; OA2 Log[nM] 2.5", "value": "101.56% and 100.81%"}, {"measurement": "% Activity", "setting": "[5]; OA2 Log[nM] 3.0", "value": "108.86% and 94.87%"}, {"measurement": "% Activity", "setting": "[5]; OA2 Log[nM] 3.5", "value": "96.93% and 100.23%"}, {"measurement": "% Activity", "setting": "[5]; OA2 Log[nM] 4.0", "value": "96.69% and 89.85%"}, {"measurement": "% Activity", "setting": "[5]; OA2 Log[nM] 4.5", "value": "98.83% and 93.79%"}, {"measurement": "% Activity", "setting": "[5]; OA2 Log[nM] 5.3", "value": "99.02% and 100.98%"}]}]}
